Laboratory results as given in ChEMBL document CHEMBL1201862, “PubChem BioAssay data set” (2004).
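Grown in 96-well plates, cells were treated for 48 hours with each compound at five concentrations. Insufficient inhibition: endpoint recorded as highest concentration tested. GI50 = concentration required for 50% inhibition of growth.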 Active and inactive are the calls of the source. Cut-off read from the data, not from the text of the source: active = GI50 up to about 1.1 µM and inactive = higher.

Assays:
Experiment in all cases: DTP human tumour cell line panel, 48 h
HL-60 = tested on: HL-60
ACHN = tested on: ACHN
SK-MEL-5 = tested on: SK-MEL-5
SF-268 = tested on: SF-268
TK-10 = tested on: TK-10
SN12C = tested on: SN12C
CCRF-CEM = tested on: CCRF-CEM
UACC-257 = tested on: UACC-257
IGROV-1 = tested on: IGROV-1
MDA-MB-435 = tested on: MDA-MB-435
OVCAR-5 = tested on: OVCAR-5
SK-MEL-28 = tested on: SK-MEL-28
COLO 205 = tested on: COLO 205
M14 = tested on: M14
SW-620 = tested on: SW-620
NCI-H522 = tested on: NCI-H522
NCI-H226 = tested on: NCI-H226
EKVX = tested on: EKVX
BT-549 = tested on: BT-549
SNB-75 = tested on: SNB-75

Row | SMILES | GI50 (HL-60) | GI50 (ACHN) | GI50 (SK-MEL-5) | GI50 (SF-268) | GI50 (TK-10) | GI50 (SN12C) | GI50 (CCRF-CEM) | GI50 (UACC-257) | GI50 (IGROV-1) | GI50 (MDA-MB-435) | GI50 (OVCAR-5) | GI50 (SK-MEL-28) | GI50 (COLO 205) | GI50 (M14) | GI50 (SW-620) | GI50 (NCI-H522) | GI50 (NCI-H226) | GI50 (EKVX) | GI50 (BT-549) | GI50 (SNB-75)
1 | CCOC(=O)CCC(NC(=O)Cc1ccc(Oc2nc3ccccc3nc2-c2cccs2)cc1)C(=O)OCC (stereo not drawn) | > 100 µM (inactive) | 2.44 µM (inactive) | > 100 µM (inactive) | 1.64 µM (inactive) | 19.2 µM (inactive) | 8.89 µM (inactive) | > 100 µM (inactive) | > 100 µM (inactive) | 47.5 µM (inactive) | 88.7 µM (inactive) | 8.97 µM (inactive) | > 100 µM (inactive) | > 100 µM (inactive) | > 100 µM (inactive) | > 100 µM (inactive) | 52 µM (inactive) | 16.6 µM (inactive) | 26.1 µM (inactive) | 29.7 µM (inactive) | 
2 | CN(/N=C\c1ccc2ccccc2c1)C1=NCCN1 | 10.4 µM (inactive) | 23.1 µM (inactive) | 14.3 µM (inactive) | 27.5 µM (inactive) | 13.2 µM (inactive) |  | 24.3 µM (inactive) | 14.8 µM (inactive) | 19.5 µM (inactive) | 15.6 µM (inactive) | 34.8 µM (inactive) | 13.6 µM (inactive) | 15.3 µM (inactive) |  | 19.1 µM (inactive) | 15.7 µM (inactive) | 16.3 µM (inactive) | 19.8 µM (inactive) | 12.1 µM (inactive) | 10.6 µM (inactive)
3 | c1ccc2c(c1)[n-]n1c3ccc4nonc4c3n[n+]21 | > 100 µM (inactive) | > 100 µM (inactive) | > 100 µM (inactive) |  |  | > 100 µM (inactive) | > 100 µM (inactive) | > 100 µM (inactive) | > 100 µM (inactive) | > 100 µM (inactive) | > 100 µM (inactive) | > 100 µM (inactive) | > 100 µM (inactive) | > 100 µM (inactive) | > 100 µM (inactive) | > 100 µM (inactive) | > 100 µM (inactive) | > 100 µM (inactive) | > 100 µM (inactive) | 56.1 µM (inactive)
4 | Cc1ccccc1Nc1cn(COCc2ccccc2)c(=O)[nH]c1=O | > 100 µM (inactive) | > 100 µM (inactive) | 55 µM (inactive) | 70.6 µM (inactive) |  | > 100 µM (inactive) | 91.6 µM (inactive) | > 100 µM (inactive) | 33 µM (inactive) | 85.3 µM (inactive) | > 100 µM (inactive) | > 100 µM (inactive) | 50.9 µM (inactive) | > 100 µM (inactive) | > 100 µM (inactive) | 40.2 µM (inactive) |  | 30.7 µM (inactive) | 14.5 µM (inactive) | 
5 | Clc1ccc(Cc2nc3ccccc3nc2-c2cccc(Br)c2)cc1 | 2.84 µM (inactive) | 1.91 µM (inactive) | 13.9 µM (inactive) | 19.8 µM (inactive) | 13.7 µM (inactive) | 3.1 µM (inactive) | 1.07 µM (active) | 3.1 µM (inactive) | 1.8 µM (inactive) | 2.14 µM (inactive) | 4.19 µM (inactive) |  | 3.17 µM (inactive) | 2.32 µM (inactive) | 2.04 µM (inactive) | 1.78 µM (inactive) | 16.9 µM (inactive) | 15.1 µM (inactive) | 3.5 µM (inactive) | 20.4 µM (inactive)
6 | CC(C)(C)NC(=S)N/N=C/c1ccccn1 | < 0.01 µM (active) | < 0.0237 µM (active) | 0.409 µM (active) | 0.863 µM (active) | 14.1 µM (inactive) | 3.16 µM (inactive) | < 0.01 µM (active) | < 0.0467 µM (active) | 0.0281 µM (active) | 3.61 µM (inactive) | 0.361 µM (active) | 3.4 µM (inactive) | < 0.01 µM (active) | 0.0851 µM (active) | < 0.0113 µM (active) |  | 1 µM (active) | 0.0596 µM (active) | 18.3 µM (inactive) | > 100 µM (inactive)
7 | O=C1CCC(=O)N1n1c(Cc2ccc(Cl)cc2)n[nH]c1=O | > 100 µM (inactive) | > 100 µM (inactive) | > 100 µM (inactive) | > 100 µM (inactive) | > 100 µM (inactive) | > 100 µM (inactive) |  | > 100 µM (inactive) | > 100 µM (inactive) | > 100 µM (inactive) | > 100 µM (inactive) | > 100 µM (inactive) | > 100 µM (inactive) | > 100 µM (inactive) | > 100 µM (inactive) | > 100 µM (inactive) | > 100 µM (inactive) | > 100 µM (inactive) | > 100 µM (inactive) | 
